The source of these data is ChEMBL document CHEMBL2169738, “Rational design of a low molecular weight, stable, potent, and long-lasting GPR103 aza-β3-pseudopeptide agonist” (J Med Chem, 2012).

In general, IC50 refers to the point on the concentration scale where inhibition reaches its midpoint. As usually defined, the EC50 is the concentration giving half of the maximal effect. The half-life is the time needed for the level to fall by half in the phase considered. Lower therefore signals rapid decline.

The source made the active and inactive calls. Numbered stars: 1 amine (or outer) side, 2 acyl side, 3 side chain; on linkers, the order of the positions; unused ones are H or OH. Square brackets hold non-standard residues; d marks the D form. Peptide text beside a SMILES is read from it. * marks the point of attachment. Acetyl(2-(piperazin-1-yl)) = O=C(CN1CCNCC1)*; azaβ3hArg = N=C(N)NCCCN(CC(=O)[*:2])N[*:1]; Hydrazinoacetyl = O=C(CNN[*:1])[*:2]; X5 = O=C(CN(Cc1ccccc1)N[*:1])[*:2]; X9 = O=C(CN(CC1CCCCC1)N[*:1])[*:2]; X1 = O=C(CN(CC(O)CO)N[*:1])[*:2]; X3 = CCCCN(CC(=O)[*:2])N[*:1]; X4 = CCCN(CC(=O)[*:2])N[*:1]; X6 = O=C(CN(CCO)N[*:1])[*:2]; X2 = NC(=O)CN(Cc1ccccc1)N*; X8 = CN(CC(=O)[*:2])N[*:1]; X7 = O=C(CN1CCCN1)*

Data set [1] has as its target T1, Pyroglutamylated RF-amide peptide receptor (Homo sapiens, UniProt Q96P65).
T1 sequence (Q96P65 whole entry): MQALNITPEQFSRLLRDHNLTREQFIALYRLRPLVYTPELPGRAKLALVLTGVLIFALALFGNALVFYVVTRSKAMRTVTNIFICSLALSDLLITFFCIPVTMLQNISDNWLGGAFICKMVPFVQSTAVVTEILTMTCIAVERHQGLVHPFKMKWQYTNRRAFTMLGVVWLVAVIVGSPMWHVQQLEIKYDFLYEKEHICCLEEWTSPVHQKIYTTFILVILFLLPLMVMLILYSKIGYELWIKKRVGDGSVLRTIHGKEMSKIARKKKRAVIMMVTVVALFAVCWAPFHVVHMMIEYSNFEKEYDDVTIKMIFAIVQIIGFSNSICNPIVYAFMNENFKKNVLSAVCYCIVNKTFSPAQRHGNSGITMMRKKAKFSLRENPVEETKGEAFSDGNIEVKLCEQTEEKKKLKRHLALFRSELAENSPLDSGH
The data set is described as follows: Antagonist activity at human GPR103 expressed in CHO cells co-expressing Galpha16 assessed as inhibition of human 26RFa-induced increase in intracellular calcium level by fluorimetry. The class given is functional, cell-based. For orientation: A change in cytosolic calcium serves as a functional read-out for many receptors and channels.

For data set [2], the target named is T1, Pyroglutamylated RF-amide peptide receptor. The data set is described as follows: Agonist activity at human GPR103 expressed in CHO cells co-expressing Galpha16 assessed as increase in intracellular calcium level measured for 2 mins by fluorimetry. The data set is classed as functional, cell-based.
For data set [3], the system named is Mus musculus. The data set is described as follows: Orexigenic effect in Swiss albino CD1 mouse at 1.2 nmol, icv measured after every 30 mins for 60 to 90 mins. The data set is classed as functional, organism-based.
In data set [4] the test system is Mus musculus. Briefly: Orexigenic effect in icv dosed Swiss albino CD1 mouse assessed as cumulative food intake measured after 2 hrs. The data set is classed as functional.
Data set [5] is described as follows: Half life in human serum by RP-HPLC. The data set is classed as ADME, cell-free.
For data set [6], the system named is Mus musculus. The data set is described as follows: Orexigenic effect in Swiss albino CD1 mouse at 0.012 to 1.2 nmol, icv measured for 30 mins. The class given is functional, organism-based.
In data set [7] the target is T1, Pyroglutamylated RF-amide peptide receptor. Briefly: Displacement of [125I]26RFa from human GPR103 expressed in HEK293 cells incubated for 1 h by gamma counter based method. The class given is cell-based. For orientation: In a radioligand displacement assay an active substance lowers the binding of a labelled ligand.
The test system of data set [8] is Mus musculus. Briefly: Orexigenic effect in Swiss albino CD1 mouse at 0.012 to 1.2 nmol, icv after 30 mins. The class given is functional, organism-based.
For data set [9], the system named is Serum. The data set is described as follows: Compound degradation in human serum assessed as breakdown of N-terminal region incubated for 15 mins by RP-HPLC. The note with it: 0.25 h. The class given is ADME, cell-free.
Data set [10] concerns Mus musculus. The data set is described as follows: Orexigenic effect in icv dosed Swiss albino CD1 mouse measured after every 30 mins. The data set is classed as functional, organism-based.
Data set [11] has as its system Serum. The data set is described as follows: Compound degradation in human serum assessed as breakdown of N-terminal region incubated for 2 mins by RP-HPLC. The data set is classed as ADME, cell-free.
Data set [12] deals with Mus musculus. Briefly: Orexigenic effect in Swiss albino CD1 mouse at 1.2 nmol, icv measured after every 30 mins for 90 to 120 mins. The class given is functional, organism-based.
The test system of data set [13] is Serum. Briefly: Ratio of t1/2 of compound to t1/2 of 26RFa in human serum by RP-HPLC. The data set is classed as ADME, cell-free.

For `NCC(=O)NCC(=O)N[C@@H](Cc1ccccc1)C(=O)N[C@@H](CO)C(=O)N[C@@H](Cc1ccccc1)C(=O)N[C@@H](CCCN=C(N)N)C(=O)NN(CC(N)=O)Cc1ccccc1` (H-GGFSFR-X2), the IC50 in data set [1] was over 10 µM. For the same compound, the half-maximal effective concentration (EC50) in data set [2] is over 10 µM.

Turning to `N=C(N)NCCC[C@H](NC(=O)[C@H](Cc1ccccc1)NC(=O)[C@H](CO)NC(=O)[C@H](Cc1ccccc1)NC(=O)CNC(=O)CN)C(=O)N[C@@H](Cc1ccccc1)C(N)=O` (H-GGFSFRF-NH2), the outcome in data set [3] and in [6] was Active. The Activity in data set [4] is 1833 mg. This compound yielded a half-life in data set [5] of 11.2 min. This compound also registered a 50% inhibitory concentration (IC50) in data set [7] of 8.73 µM. Besides, the result in data set [8] was inactive.

For the compound `NCC(=O)NCC(=O)N[C@@H](Cc1ccccc1)C(=O)N[C@@H](CO)C(=O)N[C@@H](Cc1ccccc1)C(=O)NN(CCCN=C(N)N)CC(=O)N[C@@H](Cc1ccccc1)C(N)=O` (H-GGFSF[azaβ3hArg]F-NH2), the IC50 in data set [1] is over 10 µM. In data set [2], the EC50 was over 10 µM.

As for `NCC(=O)NCC(=O)N[C@@H](Cc1ccccc1)C(=O)N[C@@H](CO)C(=O)NN(CC(=O)N[C@@H](CCCN=C(N)N)C(=O)N[C@@H](Cc1ccccc1)C(N)=O)Cc1ccccc1` (H-GGFS[X5]RF-NH2), the IC50 in data set [1] is over 10 µM. Besides, the EC50 in [2] is over 10 µM.

With `NCC(=O)NCC(=O)N[C@@H](Cc1ccccc1)C(=O)NN(CC(=O)N[C@@H](Cc1ccccc1)C(=O)N[C@@H](CCCN=C(N)N)C(=O)N[C@@H](Cc1ccccc1)C(N)=O)CC(O)CO` (some centres not stated) (H-GGF[X1]FRF-NH2), in [2], the EC50 turned out to be 0.341 µM.

As to `CCCCN(CC(=O)N[C@@H](Cc1ccccc1)C(=O)N[C@@H](CCCNC(=N)N)C(=O)N[C@@H](Cc1ccccc1)C(N)=O)NC(=O)[C@H](Cc1ccccc1)NC(=O)CNC(=O)CN` (H-GGF[X3]FRF-NH2), the EC50 in [2] was 29.8 µM.

Turning to `CCCN(CC(=O)N[C@@H](Cc1ccccc1)C(=O)N[C@@H](CCCN=C(N)N)C(=O)N[C@@H](Cc1ccccc1)C(N)=O)NC(=O)[C@H](Cc1ccccc1)NC(=O)CNC(=O)CN` (H-GGF[X4]FRF-NH2), in data set [1], the IC50 is over 10 µM. Besides, in data set [2], the half-maximal effective concentration (EC50) was over 10 µM.

For `N=C(N)NCCC[C@H](NC(=O)[C@H](Cc1ccccc1)NC(=O)CN(CCO)NC(=O)[C@H](Cc1ccccc1)NC(=O)CNC(=O)CN)C(=O)N[C@@H](Cc1ccccc1)C(N)=O` (H-GGF[X6]FRF-NH2), the EC50 in data set [2] was 1.09 µM.

Regarding `CN(CC(=O)N[C@@H](Cc1ccccc1)C(=O)N[C@@H](CCCN=C(N)N)C(=O)N[C@@H](Cc1ccccc1)C(N)=O)NC(=O)[C@H](Cc1ccccc1)NC(=O)CNC(=O)CN` (H-GGF[X8]FRF-NH2), the half-maximal effective concentration (EC50) in data set [2] was found to be 1.1 µM.

Take `NCC(=O)NCC(=O)N[C@@H](Cc1ccccc1)C(=O)NN(CC(=O)N[C@@H](Cc1ccccc1)C(=O)N[C@@H](CCCN=C(N)N)C(=O)N[C@@H](Cc1ccccc1)C(N)=O)CC1CCCCC1` (H-GGF[X9]FRF-NH2): the EC50 in data set [2] was determined as 1.37 µM.

In the case of `NCC(=O)NCC(=O)NN(CC(=O)N[C@@H](CO)C(=O)N[C@@H](Cc1ccccc1)C(=O)N[C@@H](CCCN=C(N)N)C(=O)N[C@@H](Cc1ccccc1)C(N)=O)Cc1ccccc1` (H-GG[X5]SFRF-NH2), in [2], the EC50 was determined as 2.34 µM.

With `N=C(N)NCCC[C@H](NC(=O)[C@H](Cc1ccccc1)NC(=O)[C@H](CO)NC(=O)[C@H](Cc1ccccc1)NC(=O)CNNC(=O)CN)C(=O)N[C@@H](Cc1ccccc1)C(N)=O` (H-G[Hydrazinoacetyl]FSFRF-NH2), the half-inhibitory concentration (IC50) in [7] was 2.99 µM. In data set [2], the 50% effective concentration (EC50) was 0.136 µM.

In [5], `CC(C)C[C@H](NC(=O)[C@H](CC(N)=O)NC(=O)CNC(=O)[C@H](CC(C)C)NC(=O)[C@@H]1CCCN1C(=O)CNC(=O)[C@H](CO)NC(=O)[C@@H](N)[C@@H](C)O)C(=O)N[C@@H](C)C(=O)N[C@@H](CCC(=O)O)C(=O)N[C@@H](CCC(=O)O)C(=O)N[C@@H](CC(C)C)C(=O)N[C@@H](CC(N)=O)C(=O)NCC(=O)N[C@@H](Cc1ccc(O)cc1)C(=O)N[C@@H](CO)C(=O)N[C@@H](CCCNC(=N)N)C(=O)N[C@@H](CCCCN)C(=O)N[C@@H](CCCCN)C(=O)NCC(=O)NCC(=O)N[C@@H](Cc1ccccc1)C(=O)N[C@@H](CO)C(=O)N[C@@H](Cc1ccccc1)C(=O)N[C@@H](CCCNC(=N)N)C(=O)N[C@@H](Cc1ccccc1)C(N)=O` (H-TSGPLGNLAEELNGYSRKKGGFSFRF-NH2) registered a half-life of 6.9 min. Moreover, the IC50 in data set [7] was 0.00126 µM.

Consider `N=C(N)NCCC[C@H](NC(=O)[C@H](Cc1ccccc1)NC(=O)[C@H](CO)NC(=O)[C@H](Cc1ccccc1)NC(=O)CNC(=O)CNN)C(=O)N[C@@H](Cc1ccccc1)C(N)=O` (Hydrazinoacetyl-GFSFRF-NH2), for which, in data set [2], the EC50 stood at 0.429 µM.

As to `N=C(N)NCCC[C@H](NC(=O)[C@H](Cc1ccccc1)NC(=O)CN(CC(O)CO)NC(=O)[C@H](Cc1ccccc1)NC(=O)CN1CCCN1)C(=O)N[C@@H](Cc1ccccc1)C(N)=O` (some centres not stated) (X7-F[X1]FRF-NH2), the EC50 in [2] was 0.382 µM.

For the compound `NC(=O)[C@H](Cc1ccccc1)NC(=O)[C@H](CCCN=C(N)N)NC(=O)[C@H](Cc1ccccc1)NC(=O)[C@H](CO)NC(=O)[C@H](Cc1ccccc1)NC(=O)CN1CCNCC1` ({Acetyl(2-(piperazin-1-yl))}-FSFRF-NH2), the EC50 in [2] stood at 0.138 µM.

For `N=C(N)NCCC[C@H](NC(=O)[C@H](Cc1ccccc1)NC(=O)CN(CC(O)CO)NC(=O)[C@H](Cc1ccccc1)NC(=O)CN1CCNCC1)C(=O)N[C@@H](Cc1ccccc1)C(N)=O` (some centres not stated) ({Acetyl(2-(piperazin-1-yl))}-F[X1]FRF-NH2), the Stability entry in data set [9] and in data set [11] was “Stable” throughout. Besides, the Activity result in [10] is “Dose-dependent effect”; in [4], 1873 mg. Further, the result in data set [12] was Active. In addition, the half-life in data set [5] came out at 35.6 min. Also, in data set [7], the half-inhibitory concentration (IC50) was 1.99 µM. For the same compound, the 50% effective concentration (EC50) in data set [2] turned out to be 0.0936 µM. The Ratio in [13] is reported as 5.

With `CCCN(CC(=O)N[C@@H](Cc1ccccc1)C(=O)N[C@@H](CCCNC(=N)N)C(=O)N[C@@H](Cc1ccccc1)C(N)=O)NC(=O)[C@H](Cc1ccccc1)NC(=O)CN1CCNCC1` ({Acetyl(2-(piperazin-1-yl))}-F[X4]FRF-NH2), the EC50 in data set [2] was 0.164 µM.
